In patent EP2664616A1, “Hydantoin and thiohydantoin derivatives as antiviral drugs” (priority 2012, dated 2013):

The compounds below were run on HCV replicon Luc Neo ET (assay: HCV replication inhibition assay (replicon assay, luciferase reporter)). Details: Hepatitis C virus; Huh-7 cell lines containing HCV replicon Luc Neo ET; 72 hours with compound; 1 % DMSO; firefly luciferase reporter; concentration that produces 50 % of replication inhibition; read-out: EC50 Replicon LucneoET.
Type: cell-based
Method: The compounds according to the present invention were tested for their ability to inhibit HCV replication as follows:
Huh-7 cell lines containing HCV replicon Luc Neo ET (Reblikon) were maintained in DMEM supplemented with 10% SVF, 2 mM glutamine, and 1 X NEAA, 100 U / ml penicillin, and 100 µg / ml streptomycine. Cells were maintained in medium supplemented with 0.5 mg/ml G418, at 37°C and 5% CO2 in a humidified atmosphere. Cells were dissociated at sub confluence with trypsin EDTA 1X.
Replicon Luc Neo ET is bicistronic expression constructs (Lohmann et al, 1999, Science 285, 110-113). In brief, the structural genes of the HCV genome were replaced by heterologous sequences; the gene encoding the neomycin phosphotransferase (NPT) and the internal ribosome entry site (IRES) of the encephalomyocarditis virus (EMCV). The bicistronic construct is therefore composed of the following elements: HCV-IRES nucleotides 1-389 for Luc Neo ET, the NPT gene, the EMCV-IRES directing translation of downstream HCV sequences from NS2 or NS3 up to the authentic 3' end of the genome. HCV Polyprotein of Luc Neo ET replicon harbours the cell culture adaptive mutations E1202G, T1280I, K1846T. G418-resistance is only possible with cells containing high amounts of replicon.
Cells were dissociated the day before addition of compounds and seeded in 96 well-plates at a final concentration of 27 777.77 cells.ml^-1.cm^-2 in 90µl final volume of culture medium per well and were maintained at 37°C and 5% CO2 in a humidified atmosphere for 24 hours. 10 µl of compounds to be tested were added 24 hours after seeding. Final concentration of DMSO was 1 %. Cells were incubated in the presence of compounds for 72 hours after which expression of firefly luciferase reporter gene was quantified. Briefly, culture medium was removed and cells were lysed by addition of 100 µl of lysis buffer containing 125 mM Tris Phosphate ph 7.8, 10 mM EDTA, 5 mM DTT, 50 % glycerol and 5 % Triton. Plates were vortexed 10 min at 1300 rpm. 100µl of luciferin solution 1X were added to each well. Luciferin solution contained 40 mM Tris Phosphate ph 7.8, 0.2 mM EDTA, 67 mM DTT, 2.14 mM MgCl2, 5.4 mM MgSO4, 4.7 x 10^-4 M luciferin, 5.3 x 10^-4 M ATP and 2.7 x 10^-4 M Acetyl co enzyme A. Luminescence was immediately measured with Berthold Microlumat Plus LB 96V luminometer with an integration of 1 sec. Inhibition was calculated using the formula: % inhibition = 1-[(RLUsample-RLUbackground)/(RLUsignal-RLUbackground)].
The Table 1 below illustrates data on the biological activity of compounds of the present invention. Results are expressed as EC50 which is the concentration that produces 50 % of replication inhibition. Table 1. HCV replication inhibition assay

Compound | EC50
COc1ccc(CCN2C(=S)N(c3ccc(F)cc3)C(=O)C2CC(=O)Oc2ccc(OC)cc2)cc1 (stereo not drawn) [Example 86, 4-methoxyphenyl 2-[1-(4-fluorophenyl)-3-[2-(4-methoxyphenyl)ethyl]-5-oxo-2-sulfanylideneimidazolidin-4-yl]acetate] | < 30000 nM
COc1ccc(CCN2C(=O)N(c3ccc(F)cc3)C(=O)C2CC(=O)Nc2ccc(N(C)C)cn2)cc1 (stereo not drawn) [Example 73, N-[5-(dimethylamino)pyridin-2-yl]-2-[1-(4-fluorophenyl)-3-[2-(4-methoxyphenyl)ethyl]-2,5-dioxoimidazolidin-4-yl]acetamide] | < 500 nM
COc1ccc(CCN2C(=S)N(c3ccccc3)C(=O)C2CC(=O)Nc2ccc(N(C)C)cc2)cc1 (stereo not drawn) [Example 51, N-[4-(dimethylamino)phenyl]-2-{3-[2-(4-methoxyphenyl)ethyl]-5-oxo-1-phenyl-2-sulfanylideneimidazolidin-4-yl}acetamide] | < 500 nM
COc1ccc(CCN2C(=O)N(c3ccc(F)cc3)C(=O)C2CC(=O)Nc2ccc(N(C)C)c(C)c2)cc1 (stereo not drawn) [Example 44, N-[4-(dimethylamino)-3-methylphenyl]-2-[1-(4-fluorophenyl)-3-[2-(4-methoxyphenyl)ethyl]-2,5-dioxoimidazolidin-4-yl]acetamide] | < 30000 nM
COc1ccc(CCN2C(=S)N(c3ccccc3)C(=O)/C2=C\C(=O)Nc2ccc(N(C)C)cc2)cc1 [Example 90, N-[4-(dimethylamino)phenyl]-2-[(4E)-3-[2-(4-methoxyphenyl)ethyl]-5-oxo-1-phenyl-2-sulfanylideneimidazolidin-4-ylidene]acetamide] | < 500 nM
COCCN(C)c1ccc(NC(=O)CC2C(=O)N(c3ccc(F)cc3)C(=O)N2CCc2ccc(OC)cc2)cc1 (stereo not drawn) [Example 43, 2-[1-(4-fluorophenyl)-3-[2-(4-methoxyphenyl)ethyl]-2,5-dioxoimidazolidin-4-yl]-N-{4-[(2-methoxyethyl)(methyl)amino]phenyl}acetamide] | < 5000 nM
COc1ccc(NC(=O)CC2C(=O)N(c3ccc(F)cc3)C(=S)N2CCc2ccc(N(C)C)cc2)cc1 (stereo not drawn) [Example 47, 2-(3-{2-[4-(dimethylamino)phenyl]ethyl}-1-(4-fluorophenyl)-5-oxo-2-sulfanylideneimidazolidin-4-yl)-N-(4-methoxyphenyl)acetamide] | < 500 nM
O=C(CC1C(=O)N(c2ccccc2)C(=S)N1CCc1ccc(Cl)cc1)Nc1ccccn1 (stereo not drawn) [Example 57, 2-{3-[2-(4-chlorophenyl)ethyl]-5-oxo-1-phenyl-2-sulfanylideneimidazolidin-4-yl}-N-(pyridin-2-yl)acetamide] | < 500 nM
COCCOc1ccc(NC(=O)CC2C(=O)N(c3ccc(F)cc3)C(=S)N2CCc2ccc(OC)cc2)cc1 (stereo not drawn) [Example 53, 2-[1-(4-fluorophenyl)-3-[2-(4-methoxyphenyl)ethyl]-5-oxo-2-sulfanylideneimidazolidin-4-yl]-N-[4-(2-methoxyethoxy)phenyl]acetamide] | < 500 nM
COc1ncc(NC(=O)CC2C(=O)N(c3ccc(F)cc3)C(=O)N2CCc2ccc(N(C)C)cc2)cn1 (stereo not drawn) [Example 78, 2-(3-{2-[4-(dimethylamino)phenyl]ethyl}-1-(4-fluorophenyl)-2,5-dioxoimidazolidin-4-yl)-N-(2-methoxypyrimidin-5-yl)acetamide] | < 30000 nM
O=C(CC1C(=O)N(c2ccccc2)C(=S)N1CCc1ccc(Cl)cc1)Nc1ccc(Cl)c(Cl)c1 (stereo not drawn) [Example 38, 2-{3-[2-(4-chlorophenyl)ethyl]-5-oxo-1-phenyl-2-sulfanylideneimidazolidin-4-yl}-N-(3,4-dichlorophenyl)acetamide] | < 5000 nM
COc1ccc(CCN2C(=S)N(c3ccc(F)cc3)C(=O)C2CC(=O)Nc2cnc(OC)nc2)cc1 (stereo not drawn) [Example 82, 2-[1-(4-fluorophenyl)-3-[2-(4-methoxyphenyl)ethyl]-5-oxo-2-sulfanylideneimidazolidin-4-yl]-N-(2-methoxypyrimidin-5-yl)acetamide] | < 5000 nM
COc1ccc(CCN2C(=S)N(c3ccc(F)cc3)C(=O)C2CC(=O)Nc2ccc(OC)cc2F)cc1 (stereo not drawn) [Example 85, N-(2-fluoro-4-methoxyphenyl)-2-[1-(4-fluorophenyl)-3-[2-(4-methoxyphenyl)ethyl]-5-oxo-2-sulfanylideneimidazolidin-4-yl]acetamide] | < 500 nM
COc1ccc(CCN2C(=O)N(c3ccc(F)cc3)C(=O)C2CC(=O)Nc2ccc(N(C)C)cc2)cc1 (stereo not drawn) [Example 42, N-[4-(dimethylamino)phenyl]-2-[1-(4-fluorophenyl)-3-[2-(4-methoxyphenyl)ethyl]-2,5-dioxoimidazolidin-4-yl]acetamide] | < 5000 nM
COc1ccc(CCN2C(=S)N(c3ccc(F)cc3)C(=O)C2CC(=O)Nc2ccc(OC)cn2)cc1 (stereo not drawn) [Example 83, 2-[1-(4-fluorophenyl)-3-[2-(4-methoxyphenyl)ethyl]-5-oxo-2-sulfanylideneimidazolidin-4-yl]-N-(5-methoxypyridin-2-yl)acetamide] | < 500 nM
COc1ccc(CCCN2C(=S)N(c3ccc(F)cc3)C(=O)C2CC(=O)Nc2ccc(OC)cn2)cc1 (stereo not drawn) [Example 92, 2-[1-(4-fluorophenyl)-3-[3-(4-methoxyphenyl)propyl]-5-oxo-2-sulfanylideneimidazolidin-4-yl]-N-(5-methoxypyridin-2-yl)acetamide] | < 500 nM

Same assay, conditions: Huh-7 cell lines containing HCV replicon Luc Neo ET; 72 hours with compound; 1 % DMSO; firefly luciferase reporter; concentration that produces 50 % of replication inhibition; read-out: EC50 Replicon LucneoET

Compound | EC50
2-{3-[2-(4-chlorophenyl)ethyl]-1-(4-fluorophenyl)-4-hydroxy-5-oxo-2-sulfanylideneimidazolidin-4-yl}-N-[4-(dimethylamino)phenyl]acetamide [Example 65] | < 500 nM
CCOc1cccc(NC(=O)CC2C(=O)N(c3ccccc3)C(=S)N2CCc2ccc(F)cc2)c1 (stereo not drawn) [Example 18] | < 5000 nM
COc1ccc(NC(=O)CC2C(=O)N(c3ccccc3)C(=O)N2CCC2=CCCCC2)cc1 (stereo not drawn) [Example 12] | < 500 nM
O=C(CC1C(=O)N(c2ccccc2)C(=S)N1CCc1ccccc1)Nc1ccc(Cl)cc1 (stereo not drawn) [Example 22] | < 5000 nM
COc1ccc(NC(=O)CC2C(=O)N(c3ccc(F)cc3)C(=S)N2CCCN2CCN(c3ccccc3)CC2)cc1 (stereo not drawn) [Example 14] | < 500 nM
CCCOc1ccc(NC(=O)CC2C(=O)N(c3ccccc3)C(=S)N2CCc2ccccc2)cc1 (stereo not drawn) [Example 1] | < 500 nM
COc1ccc(CCN2C(=S)N(c3ccc(F)cc3)C(=O)C2CC(=O)Nc2c(F)cc(OC)cc2F)cc1 (stereo not drawn) [Example 97] | < 500 nM
CCCOc1ccc(NC(=O)CC2C(=O)N(c3ccccc3)C(=S)N2CCc2ccc(Cl)cc2)cc1 (stereo not drawn) [Example 2] | < 500 nM
COc1ccc(NC(=O)CC2C(=O)N(c3ccc(F)cc3)C(=S)N2CCCN2CCN(Cc3ccccc3)CC2)cc1 (stereo not drawn) [Example 13] | < 500 nM
2-{3-[2-(4-chlorophenyl)ethyl]-4-hydroxy-5-oxo-1-phenyl-2-sulfanylideneimidazolidin-4-yl}-N-[4-(dimethylamino)phenyl]acetamide [Example 63] | < 500 nM
O=C(CC1C(=O)N(c2ccc(Cl)cc2)C(=S)N1CCc1ccc(Cl)cc1)Nc1ccc(F)cc1 (stereo not drawn) [Example 20] | < 30000 nM
COc1ccc(NC(=O)CC2C(=O)N(c3ccc(F)cc3)C(=O)N2CCc2cccs2)cc1 (stereo not drawn) [Example 16] | < 5000 nM
COc1ccc(NC(=O)CC2C(=O)N(c3ccccc3)C(=S)N2CCc2ccc(Cl)cc2)cc1 (stereo not drawn) [Example 5] | < 500 nM
COc1ccc(CCN2C(=S)N(c3ccc(F)cc3)C(=O)C2CC(=O)Nc2ccc(OC)cc2)cc1 (stereo not drawn) [Example 6] | < 500 nM
